# Data published in BigSolDB 2.1.
smiles,measurement,setting,value
C=CC(=O)NC(C)(C)C,solubility (mole fraction),"in DMAc, 293.15 K",0.0814
same,solubility (mole fraction),"in DMAc, 298.15 K",0.0897
same,solubility (mole fraction),"in DMAc, 303.15 K",0.0979
same,solubility (mole fraction),"in DMAc, 308.15 K",0.11
same,solubility (mole fraction),"in DMAc, 313.15 K",0.127
same,solubility (mole fraction),"in DMAc, 318.15 K",0.146
same,solubility (mole fraction),"in DMAc, 323.15 K",0.172
same,solubility (mole fraction),"in DMAc, 328.15 K",0.203
same,solubility (mole fraction),"in DMAc, 333.15 K",0.236
same,solubility (mole fraction),"in DMAc, 338.15 K",0.274
same,solubility (mole fraction),"in DMAc, 343.15 K",0.317
same,solubility (mole fraction),"in DMAc, 348.15 K",0.364
same,solubility (mole fraction),"in DMAc, 353.15 K",0.43
same,solubility (mole fraction),"in DMF, 288.15 K",0.0207
same,solubility (mole fraction),"in DMF, 293.15 K",0.0237
same,solubility (mole fraction),"in DMF, 298.15 K",0.0283
same,solubility (mole fraction),"in DMF, 303.15 K",0.0333
same,solubility (mole fraction),"in DMF, 308.15 K",0.0403
same,solubility (mole fraction),"in DMF, 313.15 K",0.0463
same,solubility (mole fraction),"in DMF, 318.15 K",0.0529
same,solubility (mole fraction),"in DMF, 323.15 K",0.0599
same,solubility (mole fraction),"in DMF, 328.15 K",0.0709
same,solubility (mole fraction),"in DMF, 333.15 K",0.0833
same,solubility (mole fraction),"in DMF, 338.15 K",0.0987
same,solubility (mole fraction),"in DMF, 343.15 K",0.117
same,solubility (mole fraction),"in DMF, 348.15 K",0.138
same,solubility (mole fraction),"in DMF, 353.15 K",0.166
same,solubility (mole fraction),"in dichloromethane, 279.15 K",0.00541
same,solubility (mole fraction),"in dichloromethane, 283.15 K",0.0065
same,solubility (mole fraction),"in dichloromethane, 285.15 K",0.0072
same,solubility (mole fraction),"in dichloromethane, 287.15 K",0.00798
same,solubility (mole fraction),"in dichloromethane, 289.15 K",0.00889
same,solubility (mole fraction),"in dichloromethane, 291.15 K",0.00962
same,solubility (mole fraction),"in dichloromethane, 293.15 K",0.0106
same,solubility (mole fraction),"in dichloromethane, 296.15 K",0.0117
same,solubility (mole fraction),"in dichloromethane, 298.15 K",0.0128
same,solubility (mole fraction),"in dichloromethane, 301.15 K",0.0142
same,solubility (mole fraction),"in dichloromethane, 304.15 K",0.016
same,solubility (mole fraction),"in ethanol, 284.95 K",0.00136
same,solubility (mole fraction),"in ethanol, 287.95 K",0.00152
same,solubility (mole fraction),"in ethanol, 291.15 K",0.0017
same,solubility (mole fraction),"in ethanol, 294.15 K",0.0021
same,solubility (mole fraction),"in ethanol, 297.15 K",0.0024
same,solubility (mole fraction),"in ethanol, 300.15 K",0.00283
same,solubility (mole fraction),"in ethanol, 304.15 K",0.00344
same,solubility (mole fraction),"in ethanol, 307.15 K",0.00392
same,solubility (mole fraction),"in ethanol, 310.15 K",0.00463
same,solubility (mole fraction),"in ethanol, 313.15 K",0.00522
same,solubility (mole fraction),"in ethanol, 316.15 K",0.00598
same,solubility (mole fraction),"in ethanol, 319.15 K",0.00677
same,solubility (mole fraction),"in ethanol, 324.15 K",0.00864
same,solubility (mole fraction),"in ethanol, 330.15 K",0.0113
same,solubility (mole fraction),"in ethanol, 335.15 K",0.0142
same,solubility (mole fraction),"in ethyl acetate, 287.15 K",0.015
same,solubility (mole fraction),"in ethyl acetate, 290.15 K",0.0155
same,solubility (mole fraction),"in ethyl acetate, 293.15 K",0.0166
same,solubility (mole fraction),"in ethyl acetate, 296.15 K",0.0178
same,solubility (mole fraction),"in ethyl acetate, 299.15 K",0.0188
same,solubility (mole fraction),"in ethyl acetate, 302.15 K",0.0204
same,solubility (mole fraction),"in ethyl acetate, 305.15 K",0.0225
same,solubility (mole fraction),"in ethyl acetate, 310.15 K",0.0256
same,solubility (mole fraction),"in ethyl acetate, 315.15 K",0.0289
same,solubility (mole fraction),"in ethyl acetate, 320.15 K",0.0327
same,solubility (mole fraction),"in ethyl acetate, 325.15 K",0.0363
same,solubility (mole fraction),"in ethyl acetate, 330.15 K",0.0406
same,solubility (mole fraction),"in ethyl acetate, 335.15 K",0.045
same,solubility (mole fraction),"in ethyl acetate, 340.15 K",0.0506
same,solubility (mole fraction),"in formamide, 284.15 K",0.00078
same,solubility (mole fraction),"in formamide, 288.15 K",0.000929
same,solubility (mole fraction),"in formamide, 294.15 K",0.00117
same,solubility (mole fraction),"in formamide, 305.15 K",0.00199
same,solubility (mole fraction),"in formamide, 308.15 K",0.00229
same,solubility (mole fraction),"in formamide, 312.15 K",0.00277
same,solubility (mole fraction),"in formamide, 316.15 K",0.00348
same,solubility (mole fraction),"in formamide, 320.15 K",0.0043
same,solubility (mole fraction),"in formamide, 324.15 K",0.00512
same,solubility (mole fraction),"in formamide, 329.15 K",0.00639
same,solubility (mole fraction),"in formamide, 334.15 K",0.00776
same,solubility (mole fraction),"in formamide, 340.15 K",0.00994
same,solubility (mole fraction),"in formamide, 345.15 K",0.0122
same,solubility (mole fraction),"in formamide, 350.15 K",0.015
same,solubility (mole fraction),"in water, 294.15 K",0.000895
same,solubility (mole fraction),"in water, 298.15 K",0.000994
same,solubility (mole fraction),"in water, 303.15 K",0.00111
same,solubility (mole fraction),"in water, 308.15 K",0.00122
same,solubility (mole fraction),"in water, 313.15 K",0.00136
same,solubility (mole fraction),"in water, 318.15 K",0.00153
same,solubility (mole fraction),"in water, 323.15 K",0.00172
same,solubility (mole fraction),"in water, 328.15 K",0.00192
same,solubility (mole fraction),"in water, 333.15 K",0.00215
same,solubility (mole fraction),"in water, 338.15 K",0.0024
same,solubility (mole fraction),"in water, 343.15 K",0.00267
same,solubility (mole fraction),"in water, 348.15 K",0.00297
same,solubility (mole fraction),"in water, 353.15 K",0.00338
